Laboratory results from article PMC9100779, “Simple and Expedient Access to Novel Fluorinated Thiazolo- and Oxazolo[3,2-a]pyrimidin-7-one Derivatives and Their Functionalization via Palladium-Catalyzed Reactions” (Molecules, 2022).

Biological target: T1, human monoamine oxidase A (hMAO-A) (Homo sapiens, UniProt P21397)
T1 construct: gene MAOA
T1 sequence (P21397 1-527): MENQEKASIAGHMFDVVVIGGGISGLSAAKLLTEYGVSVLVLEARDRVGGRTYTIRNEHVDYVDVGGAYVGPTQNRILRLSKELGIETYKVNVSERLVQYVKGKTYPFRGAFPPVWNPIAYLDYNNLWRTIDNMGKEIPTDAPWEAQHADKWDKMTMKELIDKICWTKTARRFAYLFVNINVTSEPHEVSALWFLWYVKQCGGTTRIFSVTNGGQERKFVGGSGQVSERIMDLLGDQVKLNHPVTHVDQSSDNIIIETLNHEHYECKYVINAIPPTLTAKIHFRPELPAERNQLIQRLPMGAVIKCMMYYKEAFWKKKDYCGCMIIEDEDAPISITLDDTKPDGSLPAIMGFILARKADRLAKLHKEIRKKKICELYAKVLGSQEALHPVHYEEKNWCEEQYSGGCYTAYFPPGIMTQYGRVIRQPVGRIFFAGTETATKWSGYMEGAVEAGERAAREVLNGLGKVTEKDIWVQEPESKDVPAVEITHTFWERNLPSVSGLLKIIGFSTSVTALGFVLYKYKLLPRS
Test: in vitro hMAO-A enzyme inhibition assay with p-tyramine as substrate, serial dilution
Assay type: biochemical

IC50: 54.1 µM
SMILES: O=c1cc(C(F)(F)c2ccc(Br)cc2)n2cc(Br)sc2n1 [3g, 2-Bromo-5-[(4-bromophenyl)difluoromethyl]-7H-thiazolo[3,2-a]pyrimidin-7-one]
